This assay deals with RAW264.7. Description: Concentration of compound which increased the nitrite production in RAW 264.7 mouse monocyte-macrophage line. The format is functional, cell-based.

`CC(=O)N[C@@H]1[C@@H](OC(C)C(=O)N[C@@H](C)C(=O)N[C@H](CCC(=O)N[C@@H](C)C(=O)O[C@H]2CC[C@@]3(C)C(=CC[C@H]4[C@@H]5CC[C@H]([C@H](C)CCCC(C)C)[C@@]5(C)CC[C@@H]43)C2)C(N)=O)[C@H](O)[C@@H](CO)O[C@@H]1O` (stereo partly specified): the Concentration is 1 µM.
